Data set [1] is described as follows: Pharmacological activity of the major metabolite. Conditions: major carboxylic acid metabolite.
Data set [2] is classed as in vivo, human. The following applies: for AUC / Cmax: female, human, plasma, oral; for AUC: AUC24, least-squares mean, day 21; for Cmax: least-squares mean; for AUC24 ratio (test/reference) / Cmax ratio (test/reference): with vortioxetine vs alone.
The conditions of data set [3]: multiple daily doses of vortioxetine 10 mg; CYP2D6 probe; cited from earlier work.
The nature of data set [4]: Plasma metabolic ratio of metabolite. The following applies: minor hydroxyl metabolite of vortioxetine. Format: in vivo.
The nature of data set [5]: Nonclinical pharmacology study: blood–brain barrier penetration. The following applies: based on a nonclinical pharmacology study, unpublished results.
The format of data set [6] is in vivo, human.
A short description of data set [7]: Adverse events in the bupropion study. In kind it is in vivo, human. Conditions: monotherapy period, days 1–14, n = 30.
Data set [8] is classed as in vivo, human. This is another data set of the same source.
Where [9] appears, read: concomitant agent alone (reference): placebo + EE/L 30/150 μg for 21 days.
The mark [10] stands for this setting: vortioxetine 10 mg + EE/L 30/150 μg for 21 days (test).
The mark [11] stands for this setting: omeprazole 40 mg single dose + vortioxetine 10 mg at steady state (test), day 16.
The mark [12] stands for this setting: omeprazole 40 mg single dose alone (reference), day 1.

Read-outs that look alike come from different tables or passages of the source.

We go through eight compounds from publication PMC3775155 (Clinical Drug Investigation, 2013).

As a reminder, the AUC is concentration integrated over time. Usually Cmax stands for the peak of the concentration-time curve. As a reminder, the AUC(0-inf) is the area under the concentration-time curve extrapolated to infinity. Read a high AUC(0-inf) as more exposure.

In the case of `Cc1cc(C(=O)O)ccc1Sc1ccccc1N1CCNCC1` [Lu AA34443], in data set [1], the pharmacological activity result was “pharmacologically inactive”.
As to `C#C[C@]1(O)CC[C@H]2[C@@H]3CCC4=CC(=O)CC[C@@H]4[C@H]3CC[C@@]21CC` [Levonorgestrel, levonorgestrel], in data set [2] (setting [9]), the AUC stood at 86.8 ng·h/mL and the Cmax was 6.76 ng/mL. In addition, in data set [2] (setting [10]), the Cmax was found to be 7.23 ng/mL. Besides, in data set [2], the “AUC24 ratio (test/reference)” value was 102.07% and the “Cmax ratio (test/reference)” value was 107.06%.
On to `COc1ccc2c(c1)[C@]13CCCC[C@@H]1[C@H](C2)N(C)CC3` [dextromethorphan], for which, in data set [3], the “decrease in plasma exposure of probe substrate by vortioxetine” value is recorded as “up to 24%”.
Consider `Cc1ccc(Sc2cc(O)ccc2N2CCNCC2)c(C)c1` [Lu AA39835], for which the plasma metabolic ratio in data set [4] is recorded as at most 4%. In addition, the “penetration of the blood–brain barrier” value in data set [5] was “not expected to penetrate the blood–brain barrier”.
Regarding `COc1ccc2nc([S+]([O-])Cc3ncc(CO)c(OC)c3C)[nH]c2c1` (stereo not drawn) [5′-Hydroxyomeprazole, 5′-hydroxyomeprazole], in data set [6] (setting [11]), the “AUC∞, least-squares mean” value was found to be 976 ng·h/mL and the “Cmax, least-squares mean” value was 411 ng/mL. In data set [6] (setting [12]), the “AUC∞, least-squares mean” value stood at 997 ng·h/mL and the “Cmax, least-squares mean” value amounted to 392 ng/mL. In data set [6] (with vortioxetine vs alone), the “AUC∞ ratio (test/reference)” value was determined as 97.9% and the “Cmax ratio (test/reference)” value was 104%.
`CC(NC(C)(C)C)C(=O)c1cccc(Cl)c1` (stereo not drawn) [Bupropion, bupropion]: in data set [7], the Abnormal dreams is 0 number of subjects (%), the Agitation is listed as 0 number of subjects (%), the Anxiety is on record as 0 number of subjects (%) and the Any adverse event is listed as 19 (63.3) number of subjects (%). In data set [7], the Constipation is 0 number of subjects (%), the Dizziness is reported as 3 (10.0) number of subjects (%), the Dyspepsia is recorded as 2 (6.7) number of subjects (%) and the Fatigue is recorded as 0 number of subjects (%). In addition, in data set [7], the Headache was 10 (33.3) number of subjects (%), the Hyperhidrosis is 1 (3.3) number of subjects (%), the Insomnia is 1 (3.3) number of subjects (%) and the Nausea was 5 (16.7) number of subjects (%). In addition, in data set [7], the Oropharyngeal pain was 0 number of subjects (%), the Palpitations is listed as 2 (6.7) number of subjects (%), the Somnolence is on record as 3 (10.0) number of subjects (%) and the Tremor was 1 (3.3) number of subjects (%). In addition, in data set [7], the “URTI (upper respiratory tract infection)” value is 3 (10.0) number of subjects (%), the Vertigo is given as 1 (3.3) number of subjects (%) and the Vomiting was 2 (6.7) number of subjects (%). Besides, the “Cmax greater when given with vortioxetine than without” value in data set [8] (bupropion with vs without vortioxetine) was 18%. The same compound came in with an AUC in data set [8] (human, plasma, 150 mg) of 791 ng·h/mL. For the same compound, the “Cmax, least-squares mean” value in data set [8] (vortioxetine 10 mg once daily + bupropion 150 mg twice daily (test), day 28) amounted to 177 ng/mL. In data set [8] (with vortioxetine vs alone), the “AUC24 ratio (test/reference)” value came out at 99.22% and the “Cmax ratio (test/reference)” value was 117.98%.
With `COc1ccc2[nH]c([S+]([O-])Cc3ncc(C)c(OC)c3C)nc2c1` (stereo not drawn) [Omeprazole, omeprazole], in data set [6] (human, plasma, 40 mg), the AUC(0-inf) was 1110 ng·h/mL and the Cmax is 550 ng/mL. The “Cmax greater when given with vortioxetine than without” value in data set [6] (omeprazole with vs without vortioxetine) was determined as 11%. Further, the “Cmax ratio (test/reference)” value in data set [6] (with vortioxetine vs alone) is given as 111%.
Regarding `C#C[C@]1(O)CC[C@H]2[C@@H]3CCc4cc(O)ccc4[C@H]3CC[C@@]21C` [Ethinyl estradiol, ethinyl estradiol], the AUC in data set [2] (setting [9]) is 0.857 ng·h/mL. In addition, in data set [2] (setting [10]), the AUC was 0.85 ng·h/mL and the Cmax is 0.0816 ng/mL. Also, in data set [2], the “AUC24 ratio (test/reference)” value worked out at 99.19% and the “Cmax ratio (test/reference)” value came to 93.87%.
